Source: PubChem BioAssay (NCI)
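Protocol summary: plate cells (96-well), add compound at 5 concentrations, incubate 48 h, interpolate endpoints linearly. GI50 = concentration required for 50% inhibition of growth. The concentration for full growth arrest is given as TGI.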

Assays:
Experiment in all cases: NCI tumour cell line growth inhibition, 48 h
786-0 renal = tested on: 786-0 renal
A549 NSCLC = tested on: A549 NSCLC
EKVX NSCLC = tested on: EKVX NSCLC
MDA-MB-231 breast = tested on: MDA-MB-231 breast
OVCAR-5 ovarian = tested on: OVCAR-5 ovarian
RXF 393 renal = tested on: RXF 393 renal
SNB-19 CNS = tested on: SNB-19 CNS
SR leukemia = tested on: SR leukemia
T-47D breast = tested on: T-47D breast
U251 CNS = tested on: U251 CNS

| Structure (SMILES) | GI50 (786-0 renal) [nM] | TGI (786-0 renal) [nM] | GI50 (A549 NSCLC) [nM] | TGI (A549 NSCLC) [nM] | GI50 (EKVX NSCLC) [nM] | TGI (EKVX NSCLC) [nM] | GI50 (MDA-MB-231 breast) [nM] | TGI (MDA-MB-231 breast) [nM] | GI50 (OVCAR-5 ovarian) [nM] | TGI (OVCAR-5 ovarian) [nM] | GI50 (RXF 393 renal) [nM] | TGI (RXF 393 renal) [nM] | GI50 (SNB-19 CNS) [nM] | TGI (SNB-19 CNS) [nM] | GI50 (SR leukemia) [nM] | TGI (SR leukemia) [nM] | GI50 (T-47D breast) [nM] | TGI (T-47D breast) [nM] | GI50 (U251 CNS) [nM] | TGI (U251 CNS) [nM] |
| --- | --- | --- | --- | --- | --- | --- | --- | --- | --- | --- | --- | --- | --- | --- | --- | --- | --- | --- | --- | --- |
| Cc1cc(-c2cc(OC(=O)c3ccccc3)ccc2Cl)cc2nnc(Nc3ccc(OCCN4CCCC4)cc3)nc12 | 1890 | 3500 | 1720 | 3290 | 1610 | 3090 | 1050 | 2310 | 1500 | 2840 | 1160 | 2480 | 1860 | 3370 | 460 | 2480 | 1570 | 3550 | 1650 | 3160 |
| CO/C(=C1/NC(=O)C(Cc2ccc(O)c(Br)c2)N(C)C(=O)C(C)NC(=O)CCC/C=C(\C)CCC(C)OC1=O)c1ccccc1 (stereo not drawn) | 26.3 | 69.2 | < 14.1 | 471 | 42.5 |  | 34.8 | 6580 | 44.5 | > 35000 | 34.7 | 16200 | 31 | 1960 |  | > 100000 | 35.4 | 1340 | 19.9 | 90.9 |
| O=C(CCN1CCCN(c2cnc3ccccc3n2)CC1)c1csc2ccccc12 | 18400 | 32300 | > 100000 | > 100000 | 19600 | 38700 | 21200 | 37000 | 28900 | > 100000 | 19400 | 37500 | 36700 | > 100000 | 24000 | 56700 | 11000 | 25300 | 17600 | 31400 |
| O=C(O)c1ccc(/C=N/N=C2c3ccccc3-c3ccccc32)cc1 |  | > 100000 |  | > 100000 |  | > 100000 |  | > 100000 |  | > 100000 |  | > 100000 |  | > 100000 |  | > 100000 |  | > 100000 |  | > 100000 |
| COc1c(B(O)O)cccc1-c1nc2c(F)cc3n[nH]c(C)c3c2c2c1CCCC2 | 661 | 10500 | 1130 | > 50000 | 1420 | > 27000 | 41.2 | > 50000 | 1080 | > 50000 | 44 | 924 | 1170 | > 50000 | 964 | > 24300 | 1330 | > 23200 | 1120 | > 50000 |
| COC(=O)Nc1nc2ccc(C(=O)c3ccc(F)cc3)cc2[nH]1 | 578 | 7830 | 468 | > 100000 | 438 | > 100000 | 563 | 13600 | 2450 | > 100000 | 763 | > 100000 | 322 | 15400 | 44.2 | > 100000 | 338 | > 100000 | 287 | 6680 |
